Measurements published in patent publication US9670227B2, “Thienopyrimidine derivatives, a process for their preparation and pharmaceutical compositions containing them” (LES LABORATOIRES SERVIER, priority 2013, dated 2017).
Read-outs that look alike come from different tables or passages of the source.

Key:
Mcl-1 protein = Mcl-1 protein (UniProtKB primary accession number: Q07820) (Homo sapiens, UniProt Q07820); experiment: Inhibition of Mcl-1 by fluorescence polarisation, Method 1; type: binding; conditions: fluorescence polarisation; Method 1, or Method 2; read-out: IC50 (M) Mcl-1 FP
How it was run: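 Compounds were tested as 11-point serial dilutions at 5% final DMSO against 5 nM Mcl-1 with 1 nM fluorescein-labelled ligand in 10 mM HEPES, 150 mM NaCl, 0.05% Tween 20, pH 7.4. Relative binding potency was read by fluorescence polarisation.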

[1] = system: H929 multiple myeloma tumour line; experiment: In vitro cytotoxicity, Microculture Tetrazolium Assay; type: cell-based; conditions: H929 cells, 48 hours exposure, MTT, read-out: IC50 (μM) MTT H929
Procedure: The cytotoxicity studies were carried out on the H929 multiple myeloma tumour line.
The cells are distributed onto microplates and exposed to the test compounds for 48 hours.

Mcl-1 protein, sequence (Q07820 whole entry): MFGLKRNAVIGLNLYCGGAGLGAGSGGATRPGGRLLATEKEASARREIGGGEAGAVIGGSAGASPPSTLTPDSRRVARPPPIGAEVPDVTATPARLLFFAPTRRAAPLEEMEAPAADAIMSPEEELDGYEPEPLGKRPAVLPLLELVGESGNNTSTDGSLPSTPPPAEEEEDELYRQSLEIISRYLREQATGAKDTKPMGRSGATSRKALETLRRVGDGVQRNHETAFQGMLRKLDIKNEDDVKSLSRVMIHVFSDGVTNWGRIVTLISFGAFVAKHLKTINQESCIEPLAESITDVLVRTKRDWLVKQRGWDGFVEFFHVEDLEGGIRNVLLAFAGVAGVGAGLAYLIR

SMILES | IC50 (Mcl-1 protein) [M] | IC50 ([1]; Homo sapiens, NCI-H929, 48 h) [µM] | IC50 [1] [µM]
COc1ccccc1CC(Oc1ncnc2sc(-c3cc(F)cc(F)c3)c(-c3ccc(OCCN4CCN(C)CC4)c(Cl)c3C)c12)C(=O)O [Example 527, (2R)-2-{[(5Sa)-5-{3-chloro-2-methyl-4-[2-(4-methylpiperazin-1-yl)ethoxy]phenyl}-6-(3,5-difluorophenyl)thieno[2,3-d]pyrimidin-4-yl]oxy}-3-(2-methoxyphenyl)propanoic acid] | 7.1e-08 | 0.272 | –
COc1ccccc1CC(Oc1ncnc2sc(-c3cc4sccc4s3)c(-c3ccc(OCCN4CCN(C)CC4)c(Cl)c3C)c12)C(=O)O [Example 530, (2R)-2-{[(5Sa)-5-{3-chloro-2-methyl-4-[2-(4-methylpiperazin-1-yl)ethoxy]phenyl}-6-(thieno[3,2-b]thiophen-2-yl)thieno[2,3-d]pyrimidin-4-yl]oxy}-3-(2-methoxyphenyl)propanoic acid] | 1.2e-07 | 1.59 | –
COc1ccccc1CC(Oc1ncnc2sc(-c3ccc(F)c(Cl)c3)c(-c3ccc(OCCN4CCN(C)CC4)c(Cl)c3C)c12)C(=O)O [Example 532, (2R)-2-{[6-(3-chloro-4-fluorophenyl)-(5Sa)-5-{3-chloro-2-methyl-4-[2-(4-methylpiperazin-1-yl)ethoxy]phenyl}thieno[2,3-d]pyrimidin-4-yl]oxy}-3-(2-methoxyphenyl)propanoic acid] | 5.9e-08 | 0.323 | –
COc1ccccc1CC(Oc1ncnc2sc(-c3ccc(F)c(OCC(F)(F)F)c3)c(-c3ccc(OCCN4CCN(C)CC4)c(Cl)c3C)c12)C(=O)O [Example 535, (2R)-2-[(5Sa)-5-{3-chloro-2-methyl-4-[2-(4-methylpiperazin-1-yl)ethoxy]phenyl}-6-[4-fluoro-3-(2,2,2-trifluoroethoxy)phenyl]thieno[2,3-d]pyrimidin-4-yl)oxy]-3-(2-methoxyphenyl)propanoic acid] | 1.3e-07 | 1.84 | –
COc1ccccc1C[C@@H](Oc1ncnc2sc(-c3ccc(F)c(Cl)c3F)c(-c3ccc(OCCN4CCN(C)CC4)c(Cl)c3C)c12)C(=O)O [Example 536, (2R)-2-{[6-(3-chloro-2,4-difluorophenyl)-(5Sa)-5-{3-chloro-2-methyl-4-[2-(4-methylpiperazin-1-yl)ethoxy]phenyl}thieno[2,3-d]pyrimidin-4-yl]oxy}-3-(2-methoxyphenyl)propanoic acid] | 7.7e-08 | – | 0.797
COc1ccccc1CC(Oc1ncnc2sc(-c3ccc(C)cc3)c(-c3ccc(OCCN4CCN(C)CC4)c(Cl)c3C)c12)C(=O)O [Example 538, (2R)-2-{[(5Sa)-5-{3-chloro-2-methyl-4-[2-(4-methylpiperazin-1-yl)ethoxy]phenyl}-6-(4-methylphenyl)thieno[2,3-d]pyrimidin-4-yl]oxy}-3-(2-methoxyphenyl)propanoic acid] | 4.7e-08 | 0.672 | –
COc1ccccc1CC(Oc1ncnc2sc(-c3ccc(Cl)cc3)c(-c3ccc(OCCN4CCN(C)CC4)c(Cl)c3C)c12)C(=O)O [Example 539, (2R)-2-{[(5Sa)-5-{3-chloro-2-methyl-4-[2-(4-methylpiperazin-1-yl)ethoxy]phenyl}-6-(4-chlorophenyl)thieno[2,3-d]pyrimidin-4-yl]oxy}-3-(2-methoxyphenyl)propanoic acid] | 7.2e-08 | 0.731 | –
COc1ccccc1CC(Oc1ncnc2sc(-c3ccc(C)o3)c(-c3ccc(OCCN4CCN(C)CC4)c(Cl)c3C)c12)C(=O)O [Example 541, (2R)-2-{[(5Sa)-5-{3-chloro-2-methyl-4-[2-(4-methylpiperazin-1-yl)ethoxy]phenyl}-6-(5-methylfuran-2-yl)thieno[2,3-d]pyrimidin-4-yl]oxy}-3-(2-methoxyphenyl)propanoic acid] | 2.9e-08 | 0.329 | –
CCc1ccc(-c2sc3ncnc(OC(Cc4ccccc4OC)C(=O)O)c3c2-c2ccc(OCCN3CCN(C)CC3)c(Cl)c2C)o1 [Example 543, (2R)-2-{[(5Sa)-5-{3-chloro-2-methyl-4-[2-(4-methylpiperazin-1-yl)ethoxy]phenyl}-6-(5-ethylfuran-2-yl)thieno[2,3-d]pyrimidin-4-yl]oxy}-3-(2-methoxyphenyl)propanoic acid] | 4.2e-08 | 0.766 | –
COc1ccccc1CC(Oc1ncnc2sc(-c3cccc([N+](=O)[O-])c3)c(-c3ccc(OCCN4CCN(C)CC4)c(Cl)c3C)c12)C(=O)O [Example 545, (2R)-2-{[(5Sa)-5-{3-chloro-2-methyl-4-[2-(4-methylpiperazin-1-yl)ethoxy]phenyl}-6-(3-nitrophenyl)thieno[2,3-d]pyrimidin-4-yl]oxy}-3-(2-methoxyphenyl)propanoic acid] | 3.9e-08 | 1.1 | –
C#Cc1cccc(-c2sc3ncnc(OC(Cc4ccccc4OC)C(=O)O)c3c2-c2ccc(OCCN3CCN(C)CC3)c(Cl)c2C)c1 [Example 547, (2R)-2-{[(5Sa)-5-{3-chloro-2-methyl-4-[2-(4-methylpiperazin-1-yl)ethoxy]phenyl}-6-(3-ethynylphenyl)thieno[2,3-d]pyrimidin-4-yl]oxy}-3-(2-methoxyphenyl)propanoic acid] | 3.3e-08 | 0.475 | –
COc1ccccc1CC(Oc1ncnc2sc(-c3cccc(C(F)(F)F)c3)c(-c3ccc(OCCN4CCN(C)CC4)c(Cl)c3C)c12)C(=O)O [Example 549, (2R)-2-[((5Sa)-5-{3-chloro-2-methyl-4-[2-(4-methylpiperazin-1-yl)ethoxy]phenyl}-6-[3-(trifluoromethyl)phenyl]thieno[2,3-d]pyrimidin-4-yl)oxy]-3-(2-methoxyphenyl)propanoic acid] | 1.3e-07 | 1.5 | –

The next compounds have a lower IC50 (Mcl-1 protein) than those just listed; values first:

IC50 (Mcl-1 protein) [M] | SMILES | IC50 ([1]; Homo sapiens, NCI-H929, 48 h) [µM] | IC50 [1] [µM]
2.8e-08 | COc1ccccc1C[C@@H](Oc1ncnc2sc(-c3ccc(F)c(F)c3)c(-c3ccc(OCCN4CCN(C)CC4)c(Cl)c3C)c12)C(=O)O [Example 533, (2R)-2-{[(5Sa)-5-{3-chloro-2-methyl-4-[2-(4-methylpiperazin-1-yl)ethoxy]phenyl}-6-(3,4-difluorophenyl)thieno[2,3-d]pyrimidin-4-yl]oxy}-3-(2-methoxyphenyl)propanoic acid] | – | 0.201
1.8e-08 | COc1ccccc1CC(Oc1ncnc2sc(-c3cccc(C#N)c3)c(-c3ccc(OCCN4CCN(C)CC4)c(Cl)c3C)c12)C(=O)O [Example 548, (2R)-2-{[(5Sa)-5-{3-chloro-2-methyl-4-[2-(4-methylpiperazin-1-yl)ethoxy]phenyl}-6-(3-cyanophenyl)thieno[2,3-d]pyrimidin-4-yl]oxy}-3-(2-methoxyphenyl)propanoic acid] | 0.497 | –
1.7e-08 | COc1ccccc1CC(Oc1ncnc2sc(-c3cccc(C)c3)c(-c3ccc(OCCN4CCN(C)CC4)c(Cl)c3C)c12)C(=O)O [Example 546, (2R)-2-{[(5Sa)-5-{3-chloro-2-methyl-4-[2-(4-methylpiperazin-1-yl)ethoxy]phenyl}-6-(3-methylphenyl)thieno[2,3-d]pyrimidin-4-yl]oxy}-3-(2-methoxyphenyl)propanoic acid] | 0.416 | –
1.6e-08 | COc1cc(F)cc(-c2sc3ncnc(OC(Cc4ccccc4OC)C(=O)O)c3c2-c2ccc(OCCN3CCN(C)CC3)c(Cl)c2C)c1 [Example 528, (2R)-2-{[(5Sa)-5-{3-chloro-2-methyl-4-[2-(4-methylpiperazin-1-yl)ethoxy]phenyl}-6-(3-fluoro-5-methoxyphenyl)thieno[2,3-d]pyrimidin-4-yl]oxy}-3-(2-methoxyphenyl)propanoic acid] | 0.334 | –
1.6e-08 | COc1ccccc1CC(Oc1ncnc2sc(-c3ccc(F)c(O)c3)c(-c3ccc(OCCN4CCN(C)CC4)c(Cl)c3C)c12)C(=O)O [Example 534, (2R)-2-{[(5Sa)-5-{3-chloro-2-methyl-4-[2-(4-methylpiperazin-1-yl)ethoxy]phenyl}-6-(4-fluoro-3-hydroxyphenyl)thieno[2,3-d]pyrimidin-4-yl]oxy}-3-(2-methoxyphenyl)propanoic acid] | 0.413 | –
1.4e-08 | COc1ccc(-c2sc3ncnc(OC(Cc4ccccc4OC)C(=O)O)c3c2-c2ccc(OCCN3CCN(C)CC3)c(Cl)c2C)o1 [Example 544, (2R)-2-{[(5Sa)-5-{3-chloro-2-methyl-4-[2-(4-methylpiperazin-1-yl)ethoxy]phenyl}-6-(5-methoxyfuran-2-yl)thieno[2,3-d]pyrimidin-4-yl]oxy}-3-(2-methoxyphenyl)propanoic acid] | 0.274 | –
1.3e-08 | COc1ccccc1CC(Oc1ncnc2sc(-c3cc(C)co3)c(-c3ccc(OCCN4CCN(C)CC4)c(Cl)c3C)c12)C(=O)O [Example 529, (2R)-2-{[(5Sa)-5-{3-chloro-2-methyl-4-[2-(4-methylpiperazin-1-yl)ethoxy]phenyl}-6-(4-methylfuran-2-yl)thieno[2,3-d]pyrimidin-4-yl]oxy}-3-(2-methoxyphenyl)propanoic acid] | 0.308 | –
3.5e-09 | COc1ccccc1CC(Oc1ncnc2sc(-c3ccc(F)c(C(F)(F)F)c3)c(-c3ccc(OCCN4CCN(C)CC4)c(Cl)c3C)c12)C(=O)O [Example 531, (2R)-2-[(5Sa)-(5-{3-chloro-2-methyl-4-[2-(4-methylpiperazin-1-yl)ethoxy]phenyl}-6-[4-fluoro-3-(trifluoromethyl)phenyl]thieno[2,3-d]pyrimidin-4-yl)oxy]-3-(2-methoxyphenyl)propanoic acid] | 1.22 | –
3.2e-09 | COc1ccccc1CC(Oc1ncnc2sc(-c3ccc(F)cc3F)c(-c3ccc(OCCN4CCN(C)CC4)c(Cl)c3C)c12)C(=O)O [Example 540, (2R)-2-{[(5Sa)-5-{3-chloro-2-methyl-4-[2-(4-methylpiperazin-1-yl)ethoxy]phenyl}-6-(2,4-difluorophenyl)thieno[2,3-d]pyrimidin-4-yl]oxy}-3-(2-methoxyphenyl)propanoic acid] | 0.311 | –
